# Test results taken from patent US9085520B2, “Composition for treating diabetes and metabolic diseases and a preparation method thereof” (KAOHSIUNG MEDICAL UNIVERSITY, priority 2011, dated 2015).
# “And” between values parts separate entries of the source, which are not always exact repeats. Equal entries are not always repeated.
# Tested on: 3T3-L1 adipocytes
# Test: glucose consumption (remaining glucose) in culture medium of 3T3-L1 adipocytes
# Format: cell-based
# Details: 30 μg/ml; culture medium of 3T3-L1 adipocytes after 24 hours; means ± SD, N = 3; control 310 ± 4.0
# Method: After precursor adipocytes 3T3-L1 were induced as the matured adipocytes, culture medium with glucose (concentration of 300 mg/dl) and drugs were added, and the concentration of the remaining glucose in the culture medium were measured after 24 hours.
# Adipose tissues are major sites for postprandial glucose uptake. Therefore, in vitro anti-diabetic screening model based on measuring glucose consumption after 24 hours in culture medium of 3T3-L1 adipocytes was developed. […] Accordingly, 60 chalcone derivatives with and without substitutions on A-ring were examined in our developed model. […] Structure-activity relationship (SAR) analyses data are also determined.
row,SMILES,remaining glucose concentration in culture medium after 24 hours
1,"COc1ccc(/C=C/C(=O)c2ccccc2)cc1 [Compound 7, (E)-3-(4-methoxyphenyl)-1-phenylprop-2-en-1-one]",261 ± 3.2 mg/dL
2,"COc1cccc(/C=C/C(=O)c2ccccc2)c1 [Compound 8, (E)-3-(3-methoxyphenyl)-1-phenylprop-2-en-1-one]",261 ± 7.2 mg/dL
3,"O=C(/C=C/c1cccc(OCc2ccccc2)c1)c1ccccc1O [Compound 11, (E)-3-(3-(benzyloxy)phenyl)-1-(2-hydroxyphenyl)prop-2-en-1-one]",256 ± 13.1 mg/dL
4,"COc1cccc(/C=C/C(=O)c2ccccc2Br)c1 [Compound 13, (E)-1-(2-bromophenyl)-3-(3-methoxyphenyl)prop-2-en-1-one]",249 ± 5.2 mg/dL
5,"COc1cccc(/C=C/C(=O)c2cccc(Br)c2)c1 [Compound 14, (E)-1-(3-bromophenyl)-3-(3-methoxyphenyl)prop-2-en-1-one]",262 ± 2.2 mg/dL
6,"COc1cccc(/C=C/C(=O)c2ccc(Cl)cc2)c1 [Compound 15, (E)-1-(4-chlorophenyl)-3-(3-methoxyphenyl)prop-2-en-1-one]",272 ± 22.4 mg/dL
7,"COc1cccc(/C=C/C(=O)c2ccc(Br)cc2)c1 [Compound 16, (E)-1-(4-bromophenyl)-3-(3-methoxyphenyl)prop-2-en-1-one]",257 ± 10.0 mg/dL
8,"COc1ccc(/C=C/C(=O)c2cccc(Br)c2)cc1 [Compound 17, (E)-1-(3-bromophenyl)-3-(4-methoxyphenyl)prop-2-en-1-one]",248 ± 8.0 mg/dL
9,"COc1ccc(/C=C/C(=O)c2ccc(Br)cc2)cc1 [Compound 18, (E)-1-(4-bromophenyl)-3-(4-methoxyphenyl)prop-2-en-1-one]",261 ± 12.7 mg/dL
10,"O=C(/C=C/c1ccccc1)c1cc(Br)ccc1O [Compound 19, (E)-1-(5-bromo-2-hydroxyphenyl)-3-phenylprop-2-en-1-one]",253 ± 7.8 mg/dL
11,"COc1ccc(/C=C/C(=O)c2cc(Br)ccc2O)cc1 [Compound 20, (E)-1-(5-bromo-2-hydroxyphenyl)-3-(4-methoxyphenyl)prop-2-en-1-one]",254 ± 17.6 mg/dL
12,"COc1cccc(/C=C/C(=O)c2cc(Br)ccc2O)c1 [Compound 21, (E)-1-(5-bromo-2-hydroxyphenyl)-3-(3-methoxyphenyl)prop-2-en-1-one]",260 ± 3.3 mg/dL
13,"O=C(/C=C/c1cccc(OCc2ccccc2)c1)c1cc(Br)ccc1O [Compound 22, (E)-3-(3-(benzyloxy)phenyl)-1-(5-bromo-2-hydroxyphenyl)prop-2-en-1-one]",252 ± 0.1 mg/dL
14,"O=C(/C=C/c1ccc(OCc2ccccc2)cc1)c1cc(Br)ccc1O [Compound 23, (E)-3-(4-(benzyloxy)phenyl)-1-(5-bromo-2-hydroxyphenyl)prop-2-en-1-one]",256 ± 1.3 mg/dL
15,"O=C(/C=C/c1ccc(O)cc1)c1ccccc1O [Compound 24, (2E)-1-(2-hydroxyphenyl)-3-(4-hydroxyphenyl)-2-propen-1-one]",267 ± 3.4 mg/dL
16,"O=C(/C=C/c1ccc(OCc2ccccc2)cc1)c1ccccc1O [Compound 25, (E)-3-(4-(benzyloxy)phenyl)-1-(2-hydroxyphenyl)prop-2-en-1-one]",260 ± 3.8 mg/dL
17,"COc1ccc(/C=C/C(=O)c2ccccc2F)cc1 [Compound 28, (E)-1-(2-fluorophenyl)-3-(4-methoxyphenyl)prop-2-en-1-one]",259 ± 0.3 mg/dL
18,"O=C(/C=C/c1ccc(O)cc1)c1ccccc1 [Compound 29, (E)-3-(4-hydroxyphenyl)-1-phenylprop-2-en-1-one]",263 ± 5.6 mg/dL
19,"O=C(/C=C/c1cccc(OCc2ccccc2)c1)c1ccccc1 [Compound 30, (E)-3-(3-(benzyloxy)phenyl)-1-phenylprop-2-en-1-one]",285 ± 8.2 mg/dL
20,"O=C(/C=C/c1ccc(OCc2ccccc2)cc1)c1ccccc1 [Compound 31, (E)-3-(4-(benzyloxy)phenyl)-1-phenylprop-2-en-1-one]",274 ± 13.0 mg/dL
21,"O=C(/C=C/c1ccc2c(c1)OCO2)c1ccccc1 [Compound 32, (E)-3-(benzo[d][1,3]dioxol-5-yl)-1-phenylprop-2-en-1-one]",252 ± 18.1 mg/dL
22,"O=C(/C=C/c1ccc2c(c1)OCO2)c1ccccc1O [Compound 33, (E)-3-(benzo[d][1,3]dioxol-5-yl)-1-(2-hydroxyphenyl)prop-2-en-1-one]",279 ± 7.6 mg/dL

row,SMILES,remaining glucose concentration in culture medium after 24 hours
1,"O=C(/C=C/c1cccc(OCc2ccccc2)c1)c1ccc(O)cc1O [Compound 34, (E)-3-(3-(benzyloxy)phenyl)-1-(2,4-dihydroxyphenyl)prop-2-en-1-one]",283 ± 2.6 mg/dL
2,"COc1cccc(/C=C/C(=O)c2cc(F)ccc2O)c1 [Compound 35, (E)-1-(5-fluoro-2-hydroxyphenyl)-3-(3-methoxyphenyl)prop-2-en-1-one]",297 ± 9.3 mg/dL
3,"COc1ccc(/C=C/C(=O)c2cc(Cl)ccc2O)cc1 [Compound 37, (E)-1-(5-chloro-2-hydroxyphenyl)-3-(4-methoxyphenyl)prop-2-en-1-one]",282 ± 16.4 mg/dL
4,"COc1cccc(/C=C/C(=O)c2cc(Cl)ccc2O)c1 [Compound 38, (E)-1-(5-chloro-2-hydroxyphenyl)-3-(3-methoxyphenyl)prop-2-en-1-one]",266 ± 23.3 mg/dL
5,"COc1cccc(/C=C/C(=O)c2ccccc2F)c1 [Compound 39, (E)-1-(2-fluorophenyl)-3-(3-methoxyphenyl)prop-2-en-1-one]",285 ± 4.4 mg/dL
6,"COc1ccc(/C=C/C(=O)c2cccc(F)c2)cc1 [Compound 40, (E)-1-(3-fluorophenyl)-3-(4-methoxyphenyl)prop-2-en-1-one]",298 ± 15.5 mg/dL
7,"COc1cccc(/C=C/C(=O)c2cccc(F)c2)c1 [Compound 41, (E)-1-(3-fluorophenyl)-3-(3-methoxyphenyl)prop-2-en-1-one]",282 ± 10.1 mg/dL
8,"COc1cccc(/C=C/C(=O)c2ccc(F)cc2)c1 [Compound 42, (E)-1-(4-fluorophenyl)-3-(3-methoxyphenyl)prop-2-en-1-one]",285 ± 1.6 mg/dL
9,"O=C(/C=C/c1ccccc1)c1cccc(Cl)c1 [Compound 43, (E)-1-(3-chlorophenyl)-3-phenylprop-2-en-1-one]",291 ± 9.2 mg/dL
10,"COc1cccc(/C=C/C(=O)c2cccc(Cl)c2)c1 [Compound 44, (E)-1-(3-chlorophenyl)-3-(3-methoxyphenyl)prop-2-en-1-one]",287 ± 13.4 mg/dL
11,"COc1ccc(/C=C/C(=O)c2cccc(Cl)c2)cc1 [Compound 45, (E)-1-(3-chlorophenyl)-3-(4-methoxyphenyl)prop-2-en-1-one]",255 ± 27.1 mg/dL
12,"O=C(/C=C/c1ccccc1)c1ccc(Cl)cc1 [Compound 46, (E)-1-(4-chlorophenyl)-3-phenylprop-2-en-1-one]",295 ± 8.8 mg/dL
13,"COc1ccc(/C=C/C(=O)c2ccc(Cl)cc2)cc1 [Compound 47, (E)-1-(4-chlorophenyl)-3-(4-methoxyphenyl)prop-2-en-1-one]",293 ± 7.8 mg/dL
14,"O=C(/C=C/c1ccccc1)c1ccccc1Br [Compound 48, (E)-1-(2-bromophenyl)-3-phenylprop-2-en-1-one]",249 ± 20.8 mg/dL
15,"O=C(/C=C/c1ccccc1)c1cccc(Br)c1 [Compound 49, (E)-1-(3-bromophenyl)-3-phenylprop-2-en-1-one]",299 ± 7.3 mg/dL
16,"O=C(/C=C/c1ccccc1)c1ccc(Br)cc1 [Compound 50, (E)-1-(4-bromophenyl)-3-phenylprop-2-en-1-one]",295 ± 5.8 mg/dL
17,"O=C(/C=C/c1ccc(OCc2ccccc2)cc1)c1ccccc1I [Compound 53, (E)-3-(4-(benzyloxy)phenyl)-1-(2-iodophenyl)prop-2-en-1-one]",249 ± 3.6 mg/dL
18,"O=C(/C=C/c1cccc(OCc2ccccc2)c1)c1ccccc1I [Compound 54, (E)-3-(3-(benzyloxy)phenyl)-1-(2-iodophenyl)prop-2-en-1-one]",238 mg/dL and 238 ± 1.1 mg/dL
19,"O=C(/C=C/c1ccccc1)c1cccc(I)c1 [Compound 55, (E)-1-(3-iodophenyl)-3-phenylprop-2-en-1-one]",294 ± 7.3 mg/dL
20,"COc1ccc(/C=C/C(=O)c2cccc(I)c2)cc1 [Compound 56, (E)-1-(3-iodophenyl)-3-(4-methoxyphenyl)prop-2-en-1-one]",233 mg/dL and 233 ± 3.5 mg/dL
21,"COc1cccc(/C=C/C(=O)c2cccc(I)c2)c1 [Compound 57, (E)-1-(3-iodophenyl)-3-(3-methoxyphenyl)prop-2-en-1-one]",246 ± 11.3 mg/dL

# Same assay, conditions: FIG. 1; 30 μg/ml, medium glucose 300 mg/dl, remaining glucose after 24 hours
row,SMILES,glucose absorption activity of adipocytes 3T3-L1 (anti-hyperglycemic ability)
1,"COc1cccc(/C=C/C(=O)c2ccc(Cl)cc2)c1 [Compound 15, (E)-1-(4-chlorophenyl)-3-(3-methoxyphenyl)prop-2-en-1-one]",not significantly different
2,"COc1cccc(/C=C/C(=O)c2ccc(Br)cc2)c1 [Compound 16, (E)-1-(4-bromophenyl)-3-(3-methoxyphenyl)prop-2-en-1-one]",not significantly different
